Reference: US11931429B2, “Chemiluminescent probes for diagnostics and in vivo imaging” (RAMOT AT TEL-AVIV UNIVERSITY LTD., priority 2016, dated 2024)
“Also recorded” adds a separate entry of the source. Read-outs that look alike come from different tables or passages of the source.

What was measured:
[1] = Absorbance and fluorescence of phenol-benzoate derivatives in PBS 7.4; assay type: physicochemical; settings: for λ maxem [nm] / λ maxex [nm] / ΦFluorescence / ε 400 nm: PBS 7.4; for Relative fluorescence emission: PBS 7.4, relative to 6a; for fluorescence emission intensity relative to parent benzoate without chlorine: 7a vs 6a, 9a vs 8a
Procedure: General. […] Fluorescence quantum yield was determined using Hamamatsu Quantaurus-QY.
To evaluate the substituent effect, numerous phenol-benzoate derivatives with acceptor substituents at ortho and para positions of the phenol were synthesized, and their fluorescent emission in PBS 7.4 were measured. The most significant effect was obtained when an acceptor was incorporated at the ortho position of the phenol. Following broad screen of electron-withdrawing groups, we chose to focus on the chlorine, methyl-acrylate and acrylonitrile substituents. It was previously shown that in order to enable the chemiexcitation mechanism under physiological conditions, a chlorine substituent is introduced at the ortho position of phenolic ring. This electron-withdrawing substituent decreases the pKa of the phenol released after cleavage of the protecting group and thereby enriches the relative concertation of the phenolate species in physiological pH. The methyl-acrylate and acrylonitrile substituents induced the highest increase in fluorescence emission of their corresponded phenol-benzoates. The absorbance and fluorescence spectra of selected phenol-benzoate derivatives are shown in FIG. 11, and their molecular structure and spectroscopic parameters are summarized Table 9.

[2] = Chemiluminescence of adamantylidene-dioxetane luminophores 5b-9b in PBS 7.4; assay type: physicochemical; settings: for λ maxCL [nm] / chemiluminescence emission signal relative to dioxetane 5b: PBS 7.4; for Relative CL emission: relative to 5b; for chemiluminescence emission signal upon deprotonation: water / PBS 7.4; for ΦCL(H20) %: aqueous, 5b as reference
[3] = reference compound, known value (Trofimov et al., 1996; Edwards et al., 1994); cited from earlier work
[4] = test system: β-galactosidase; settings: 1 μM, 1.5 units/mL β-galactosidase; for chemiluminescence emission signal relative to Probe 5: PBS pH 7.4 (10% DMSO), room temp
Procedure: Next, we measured the light chemiluminescence emission of the probes, as a function of time, in the presence and in the absence of β-galactosidase.
Commercially available Emerald-II™ enhancer (10%) was added to Probe 5 in the presence of β-galactosidase (in PBS 7.4) and its chemiluminescence emission was compared to that of Probe 6.

[5] = test system: HEK293-LacZ stable cells; experiment: Chemiluminescence microscopy imaging of β-galactosidase activity in HEK293-LacZ cells; assay type: cell-based; settings: 5 μM, 20 min incubation, 60× objective, seconds exposure (Study 2)
Procedure: (§1) Images were obtained following 20 min incubation with cell culture medium containing Probe 3 (5 μM).
(§2) Images were obtained following 20 min incubation with cell culture medium containing Probe 7 (5 μM). Images were taken by the LV200 Olympus-microscope using 60× objective and 40s exposure time.
(§3) Chemiluminescence microscopy imaging of β-galactosidase activity. Chemiluminescence images were acquired using Olympus LV200 inverted microscope fitted with an EMCCD camera (Hamamatsu C9100-13). HEK293 LacZ stable cells (amsbio SC003) and HEK293-WT cells (control) were grown on 35 mm glass bottom petri dishes at 37° C. for 24 h. Cell culture medium was changed to Molecular Probes® Live Cell Imaging Solution containing 5 μM of Probe 3. Cells were incubated for another 20 minutes at 37° C. Thereafter, images were recorded with 20 minutes exposure time.
To improve the image quality, the HEK293-LacZ cells were fixed by using 4% formaldehyde and permeabilized with 0.1% Triton X-100. The cells were then incubated with Probe 3 and imaged by the microscope using a 60× objective (NA 1.42).
Chemiluminescence images were acquired using Olympus LV200 inverted microscope fitted with an EMCCD camera (Hamamatsu C9100-13). […] Thereafter, images were recorded with 40 seconds exposure time.

[6] = test system: HEK293-WT cells; experiment: Chemiluminescence microscopy imaging, HEK293-WT control cells; assay type: cell-based; settings: 5 μM, 20 min incubation (Study 2)
Procedure: as §1, §2, §3
as §3, with “Chemiluminescence” for “Chemiluminescence microscopy imaging of β-galactosidase activity. Chemiluminescence”, “of probe 4.” for “of Probe 3.”, “with 40 seconds” for “with 20 minutes”

[7] = Chemiluminescence detection of hydrogen peroxide by Probe 10; assay type: biochemical
Procedure: (§4) On the left—a comparison between light emission observed by Probe 10 (1 mM; left vial) to that observed by Luminol (1 mM; right vial) upon incubation with hydrogen peroxide under aqueous conditions at pH 10. Probe 12 is a chemiluminescence for detection of GSH.
(§5) FIGS. 15A-15B show (15A) total light emitted from Probe 10 (100 μM), Probe 11 (10 μM) and Probe 12 (10 μM) in the presence of hydrogen peroxide (1 mM), alkaline phosphatase (AP) (1.5 EU/ml) or glutathione (1 mM). Measurements were conducted in PBS (100 mM), pH 7.4, with 10% DMSO at RT; and (15B) total light emitted from Probe 10 (500 μM), Probe 11 (500 μM) and Probe 12 (10 μM) in PBS (100 mM), pH 7.4 with 10% DMSO over a period of 1 h, with various concentration of the corresponding stimulus. A detection limit (blank control+3 SD) was determined for each probe.
(§6) The activation of our chemiluminescence probes is based on removal of a protecting group from the phenolic moiety. Therefore, different phenol-protecting groups could be incorporated as triggering substrates for various analytes/enzymes (Redy-Keisar et al., 2014). […] Probe 10 was equipped with boronic-ester as a substrate for hydrogen peroxide, Probe 11 with phosphate group as a substrate for alkaline-phosphatase and Probe 12 with dinitro-benzene-sulfonyl group as a substrate for GSH (FIG. 14). The probes were prepared with an acrylic acid or methyl acrylate substituent at the ortho position of the phenolic oxygen. […] As described above, the probes decompose upon their activation to release the excited state of the coresponed benzoate. The acrylate substituent efficiently increases the emissive nature of the released benzoate to produce strong light emission, clearly visible to the naked eye.
(§7) To evaluate the sensitively and selectivity of Probes 10, 11 and 12 to detect their corresponded analyte/enzyme, we determined the probes' limit of detection (LOD). […] Probe 10 could detect hydrogen peroxide with an LOD value of 30 nM, Probe 11 could detect alkaline-phosphatase with an LOD value of 3.9 μU/ml and Probe 12 could detect GSH with an LOD value of 1.7 μM.

[8] = Aqueous solubility; assay type: physicochemical
[9] = test system: alkaline phosphatase (AP); experiment: Chemiluminescence detection of alkaline phosphatase by Probe 11; assay type: biochemical
Procedure: as §4
as §5, with “[…];” for “Measurements were conducted in PBS (100 mM), pH 7.4, with 10% DMSO at RT;”
as §6, §7

[10] = Chemiluminescence detection of glutathione by Probe 12; assay type: biochemical
Procedure: as §5
The activation of our chemiluminescence probes is based on removal of a protecting group from the phenolic moiety. Therefore, different phenol-protecting groups could be incorporated as triggering substrates for various analytes/enzymes (Redy-Keisar et al., 2014). […] Probe 10 was equipped with boronic-ester as a substrate for hydrogen peroxide, Probe 11 with phosphate group as a substrate for alkaline-phosphatase and Probe 12 with dinitro-benzene-sulfonyl group as a substrate for GSH (FIG. 14). The probes were prepared with an acrylic acid or methyl acrylate substituent at the ortho position of the phenolic oxygen. […]
To evaluate the sensitively and selectivity of Probes 10, 11 and 12 to detect their corresponded analyte/enzyme, we determined the probes' limit of detection (LOD). […]

[11] = 500 μM probe, PBS (100 mM) pH 7.4, 10% DMSO, 1 h, blank control+3 SD

Compound: COC(=O)c1cccc(O)c1 [Benzoate 4a, reference compound]
- λ maxem [nm] [1]: 470 nm
- λ maxex [nm] [1]: 290 nm
- Relative fluorescence emission [1]: do not present any measurable fluorescence; also recorded: negligible

Compound: COC(=O)c1cccc(O)c1Cl [Benzoate 5a, reference compound]
- λ maxem [nm] [1]: 470 nm
- λ maxex [nm] [1]: 290 nm
- Relative fluorescence emission [1]: do not present any measurable fluorescence; also recorded: Negligible

Compound: COC(=O)/C=C/c1ccc(C(=O)OC)cc1O [Benzoate 6a]
- ΦFluorescence [1]: 0.5%
- ε 400 nm [1]: 1200
- λ maxem [nm] [1]: 550 nm
- λ maxex [nm] [1]: 400 nm
- Relative fluorescence emission [1]: 1

Compound: COC(=O)/C=C/c1ccc(C(=O)OC)c(Cl)c1O [Benzoate 7a]
- fluorescence emission intensity relative to parent benzoate without chlorine [1]: about 10 fold
- ΦFluorescence [1]: 5.2%
- ε 400 nm [1]: 7400
- λ maxem [nm] [1]: 550 nm
- λ maxex [nm] [1]: 400 nm
- Relative fluorescence emission [1]: 10.6

Compound: COC(=O)c1ccc(/C=C/C#N)c(O)c1 [Benzoate 8a]
- ΦFluorescence [1]: 7%
- ε 400 nm [1]: 2200
- λ maxem [nm] [1]: 525 nm
- λ maxex [nm] [1]: 400 nm
- Relative fluorescence emission [1]: 4.7

Compound: COC(=O)c1ccc(/C=C/C#N)c(O)c1Cl [Benzoate 9a]
- fluorescence emission intensity relative to parent benzoate without chlorine [1]: about 4 fold
- ΦFluorescence [1]: 29.8%
- ε 400 nm [1]: 7700
- λ maxem [nm] [1]: 525 nm
- λ maxex [nm] [1]: 400 nm
- Relative fluorescence emission [1]: 18.0

Compound: COC1(c2cccc(O)c2Cl)OOC12C1CC3CC(C1)CC2C3 (stereo not shown) [Phenol 5b, reference compound]
- λ maxCL [nm] [2]: 470 nm
- Relative CL emission [2]: 1
- chemiluminescence emission signal upon deprotonation [2]: extremely weak
- ΦCL(H20) % [3]: 3.2×10^−3%

Compound: COC(=O)/C=C/c1ccc(C2(OC)OOC23C2CC4CC(C2)CC3C4)cc1O (stereo not shown) [Phenol 6b]
- chemiluminescence emission signal relative to dioxetane 5b [2]: about 700 fold
- λ maxCL [nm] [2]: 540 nm
- ΦCL(H20) % [2]: 2.3%
- Relative CL emission [2]: 724
- chemiluminescence emission signal upon deprotonation [2]: remarkably strong chemiluminescence emission signal

Compound: COC(=O)/C=C/c1ccc(C2(OC)OOC23C2CC4CC(C2)CC3C4)c(Cl)c1O (stereo not shown) [Phenol 7b]
- λ maxCL [nm] [2]: 540 nm
- ΦCL(H20) % [2]: 2.5%
- Relative CL emission [2]: 780
- chemiluminescence emission signal upon deprotonation [2]: remarkably strong chemiluminescence emission signal

Compound: COC1(c2ccc(/C=C/C#N)c(O)c2)OOC12C1CC3CC(C1)CC2C3 (stereo not shown) [Phenol 8b]
- λ maxCL [nm] [2]: 525 nm
- ΦCL(H20) % [2]: 7.4%
- Relative CL emission [2]: 2295
- chemiluminescence emission signal upon deprotonation [2]: remarkably strong chemiluminescence emission signal

Compound: COC1(c2ccc(/C=C/C#N)c(O)c2Cl)OOC12C1CC3CC(C1)CC2C3 (stereo not shown) [Phenol 9b]
- chemiluminescence emission signal relative to dioxetane 5b [2]: about 3000 fold
- λ maxCL [nm] [2]: 525 nm
- ΦCL(H20) % [2]: 9.8%
- Relative CL emission [2]: 3043
- chemiluminescence emission signal upon deprotonation [2]: remarkably strong chemiluminescence emission signal

Compound: COC(=O)/C=C/c1ccc(C2(OC)OOC23C2CC4CC(C2)CC3C4)cc1OCc1ccc(O[C@@H]2OC(CO)[C@H](O)C(O)C2O)cc1 (stereo partly shown) [Probe 6]
- chemiluminescence emission signal relative to Probe 5 [4]: about 500 fold

Compound: COC(=O)/C=C/c1ccc(C2(OC)OOC23C2CC4CC(C2)CC3C4)c(Cl)c1OCc1ccc(O[C@@H]2OC(CO)[C@H](O)C(O)C2O)cc1 (stereo partly shown) [Probe 7]
- chemiluminescence images of HEK293-LacZ cells [5]: high quality chemiluminescence images; also recorded: excellent chemiluminescence cell images
- chemiluminescence signal of HEK293-WT cells [6]: No chemiluminescence signal at all was observed

Compound: COC1(c2ccc(/C=C/C#N)c(OCc3ccc(O[C@@H]4OC(CO)[C@H](O)C(O)C4O)cc3)c2Cl)OOC12C1CC3CC(C1)CC2C3 (stereo partly shown) [Probe 9]
- chemiluminescence emission signal relative to Probe 5 with Emerald-II™ enhancer ([4]; PBS 7.4 (10% DMSO)): more than 8 fold
- chemiluminescence emission signal relative to Probe 5 [4]: about 1800 fold

Compound: COC1(c2ccc(/C=C/C(=O)O)c(B3OC(C)(C)C(C)(C)O3)c2)OOC12C1CC3CC(C1)CC2C3 (stereo not shown) [Probe 10]
- LOD for hydrogen peroxide [7, 11]: 30 nM
- luminescence upon reaction with analyte ([7]; 1 mM, pH 10): bright green luminescence
- selectivity towards analyte of choice ([7]; vs alkaline phosphatase and glutathione, physiological conditions): very good selectivity
- aqueous solubility [8]: increased significantly

Compound: COC1(c2ccc(/C=C/C(=O)O)c(OP(=O)(O)O)c2)OOC12C1CC3CC(C1)CC2C3 (stereo not shown) [Probe 11]
- LOD for alkaline-phosphatase [9, 11]: 3.9 μU/ml
- luminescence upon reaction with enzyme ([9]; 1 mM, pH 10): bright green luminescence
- selectivity towards analyte of choice ([9]; vs hydrogen peroxide and glutathione, physiological conditions): very good selectivity
- aqueous solubility [8]: increased significantly

Compound: COC(=O)/C=C/c1ccc(C2(OC)OOC23C2CC4CC(C2)CC3C4)cc1OCc1ccc(NS(=O)(=O)c2ccc([N+](=O)[O-])cc2[N+](=O)[O-])cc1 (stereo not shown) [Probe 12]
- LOD for GSH ([10]; 10 μM probe, PBS (100 mM) pH 7.4, 10% DMSO, 1 h, blank control+3 SD): 1.7 µM
- selectivity towards analyte of choice ([10]; vs hydrogen peroxide and alkaline phosphatase, physiological conditions): very good selectivity
- aqueous solubility [8]: relatively moderate aqueous solubility
- applicable concentration range ([8]; aqueous): 1 to 10 µM
